Results as given in ChEMBL document CHEMBL3885881, “DrugMatrix”.

Organism: Rattus norvegicus
Assay: DrugMatrix - Regimen: Daily Repeat
Assay type: toxicity, organism-based, Sprague-Dawley
Set-up: regimen Daily Repeat, gender Male, age 6-8 weeks
Conditions: in vivo, po, route oral GAVAGE, […]; for TOTAL PROTEIN / ALANINE AMINOTRANSFERASE / ALBUMIN / ALKALINE PHOSPHATASE / ASPARTATE AMINOTRANSFERASE / BLOOD UREA NITROGEN / CARBON DIOXIDE / CHLORIDE / CHOLESTEROL / CREATINE PHOSPHOKINASE / CREATININE / GLUCOSE / LACTATE DEHYDROGENASE / LIPASE / PHOSPHORUS / POTASSIUM / SODIUM / TOTAL BILIRUBIN: tissue Plasma; for ABSOLUTE BASOPHIL / ABSOLUTE EOSINOPHIL / ABSOLUTE LYMPHOCYTE / ABSOLUTE MONOCYTE / ABSOLUTE SEGMENTED NEUTROPHIL / BASOPHIL / EOSINOPHIL / ERYTHROCYTE COUNT / HEMATOCRIT / HEMOGLOBIN / LEUKOCYTE COUNT / LYMPHOCYTE / MEAN CORPUSCULAR HEMOGLOBIN / MEAN CORPUSCULAR HEMOGLOBIN CONCENTRATION / MEAN CORPUSCULAR VOLUME / MONOCYTE / NEUTROPHIL / NUCLEATED RED BLOOD CELLS / PLATELET COUNT: tissue Blood
[1] = 40 mg/kg, 120 h, dose level Low, time 5 day
[2] = 90 mg/kg, 72 h, dose level High, time 3 day
[3] = 90 mg/kg, 120 h, dose level High, time 5 day

CN(C)CCCC1(c2ccc(F)cc2)OCc2cc(C#N)ccc21 (stereo not given) [CITALOPRAM]
TOTAL PROTEIN (40 mg/kg, 72 h, dose level Low, time 3 day): 4.8 G/DL
ABSOLUTE BASOPHIL [1]: 0 CELLS/uL
ABSOLUTE EOSINOPHIL [1]: 0 CELLS/uL
ABSOLUTE LYMPHOCYTE [1]: 8782.67 CELLS/uL
ABSOLUTE MONOCYTE [1]: 193 CELLS/uL
ABSOLUTE SEGMENTED NEUTROPHIL [1]: 424.33 CELLS/uL
BASOPHIL [1]: 0%
EOSINOPHIL [1]: 0%
ERYTHROCYTE COUNT [1]: 5.43 x10E6/uL
HEMATOCRIT [1]: 34.67%
HEMOGLOBIN [1]: 13.13 G/DL
LEUKOCYTE COUNT [1]: 9.4 x10E3/uL
LYMPHOCYTE [1]: 93.67%
MEAN CORPUSCULAR HEMOGLOBIN [1]: 24.23 pg
MEAN CORPUSCULAR HEMOGLOBIN CONCENTRATION [1]: 37.87 G/DL
MEAN CORPUSCULAR VOLUME [1]: 63.9 fL
MONOCYTE [1]: 2%
NEUTROPHIL [1]: 4.33%
NUCLEATED RED BLOOD CELLS [1]: 0 /100WBC
PLATELET COUNT [1]: 1141.33 x10E3/uL
ALANINE AMINOTRANSFERASE [1]: 63 u/L
ALBUMIN [1]: 3.87 G/DL
ALKALINE PHOSPHATASE [1]: 433.67 u/L
ASPARTATE AMINOTRANSFERASE [1]: 95 u/L
BLOOD UREA NITROGEN [1]: 10.67 mg/dL
CARBON DIOXIDE [1]: 31.33 mmol/L
CHLORIDE [1]: 100.67 MEQ/L
CHOLESTEROL [1]: 73 mg/dL
CREATINE PHOSPHOKINASE [1]: 389.67 u/L
CREATININE [1]: 0.14 mg/dL
GLUCOSE [1]: 160 mg/dL
LACTATE DEHYDROGENASE [1]: 173.67 u/L
LIPASE [1]: 10.67 u/L
PHOSPHORUS [1]: 10.57 mg/dL
POTASSIUM [1]: 5.68 MEQ/L
SODIUM [1]: 145.67 MEQ/L
TOTAL BILIRUBIN [1]: 0.1 mg/dL
TOTAL PROTEIN [1]: 5.87 G/DL
ABSOLUTE BASOPHIL [2]: 0 CELLS/uL
ABSOLUTE EOSINOPHIL [2]: 0 CELLS/uL
ABSOLUTE LYMPHOCYTE [2]: 13332.67 CELLS/uL
ABSOLUTE MONOCYTE [2]: 32 CELLS/uL
ABSOLUTE SEGMENTED NEUTROPHIL [2]: 868.67 CELLS/uL
BASOPHIL [2]: 0%
EOSINOPHIL [2]: 0%
ERYTHROCYTE COUNT [2]: 5.39 x10E6/uL
HEMATOCRIT [2]: 34.6%
HEMOGLOBIN [2]: 13.63 G/DL
LEUKOCYTE COUNT [2]: 14.23 x10E3/uL
LYMPHOCYTE [2]: 93.67%
MEAN CORPUSCULAR HEMOGLOBIN [2]: 25.3 pg
MEAN CORPUSCULAR HEMOGLOBIN CONCENTRATION [2]: 39.4 G/DL
MEAN CORPUSCULAR VOLUME [2]: 64.2 fL
MONOCYTE [2]: 0.33%
NEUTROPHIL [2]: 6%
NUCLEATED RED BLOOD CELLS [2]: 0 /100WBC
PLATELET COUNT [2]: 1096.33 x10E3/uL
ALANINE AMINOTRANSFERASE [2]: 59.67 u/L
ALBUMIN [2]: 3.87 G/DL
ALKALINE PHOSPHATASE [2]: 376.33 u/L
ASPARTATE AMINOTRANSFERASE [2]: 89 u/L
BLOOD UREA NITROGEN [2]: 9.33 mg/dL
CARBON DIOXIDE [2]: 26.67 mmol/L
CHLORIDE [2]: 102.5 MEQ/L
CHOLESTEROL [2]: 65.67 mg/dL
CREATINE PHOSPHOKINASE [2]: 142.33 u/L
CREATININE [2]: 0.11 mg/dL
GLUCOSE [2]: 156 mg/dL
LACTATE DEHYDROGENASE [2]: 214.33 u/L
PHOSPHORUS [2]: 10.6 mg/dL
POTASSIUM [2]: 6.1 MEQ/L
SODIUM [2]: 145.75 MEQ/L
TOTAL BILIRUBIN [2]: 0.2 mg/dL
TOTAL PROTEIN [2]: 5.5 G/DL
ABSOLUTE BASOPHIL [3]: 0 CELLS/uL
ABSOLUTE EOSINOPHIL [3]: 0 CELLS/uL
ABSOLUTE LYMPHOCYTE [3]: 14553.33 CELLS/uL
ABSOLUTE MONOCYTE [3]: 322.67 CELLS/uL
ABSOLUTE SEGMENTED NEUTROPHIL [3]: 1290.67 CELLS/uL
BASOPHIL [3]: 0%
EOSINOPHIL [3]: 0%
ERYTHROCYTE COUNT [3]: 5.96 x10E6/uL
HEMATOCRIT [3]: 37.47%
HEMOGLOBIN [3]: 14.47 G/DL
LEUKOCYTE COUNT [3]: 16.17 x10E3/uL
LYMPHOCYTE [3]: 90.67%
MEAN CORPUSCULAR HEMOGLOBIN [3]: 24.33 pg
MEAN CORPUSCULAR HEMOGLOBIN CONCENTRATION [3]: 38.67 G/DL
MEAN CORPUSCULAR VOLUME [3]: 62.9 fL
MONOCYTE [3]: 2%
NEUTROPHIL [3]: 7.33%
NUCLEATED RED BLOOD CELLS [3]: 0 /100WBC
PLATELET COUNT [3]: 1137 x10E3/uL
ALANINE AMINOTRANSFERASE [3]: 40.33 u/L
ALBUMIN [3]: 4 G/DL
ALKALINE PHOSPHATASE [3]: 365 u/L
ASPARTATE AMINOTRANSFERASE [3]: 81.67 u/L
CARBON DIOXIDE [3]: 28.67 mmol/L
CHLORIDE [3]: 100 MEQ/L
CHOLESTEROL [3]: 70.33 mg/dL
CREATINE PHOSPHOKINASE [3]: 309.67 u/L
CREATININE [3]: 0.14 mg/dL
GLUCOSE [3]: 179.33 mg/dL
LACTATE DEHYDROGENASE [3]: 263 u/L
LIPASE [3]: 10.67 u/L
PHOSPHORUS [3]: 11.03 mg/dL
POTASSIUM [3]: 5.22 MEQ/L
SODIUM [3]: 145.33 MEQ/L
TOTAL BILIRUBIN [3]: 0.13 mg/dL
TOTAL PROTEIN [3]: 6.03 G/DL
